# According to PubChem BioAssay AID1259407 (Chemical Carcinogenesis Research Information System (CCRIS), 2018):
# Active and inactive are the calls of the source. No rule for the calls is given here.
# System: CCRIS mutagenicity, Ames/micronucleus/aberration tests
# Assay: CCRIS mutagenicity studies
# [1] = Test System: AMES SALMONELLA TYPHIMURIUM, Strain/Indicator: TA98, Metabolic Activation: NONE, Method: STANDARD PLATE
# [2] = Test System: AMES SALMONELLA TYPHIMURIUM, Strain/Indicator: TA100, Metabolic Activation: NONE, Method: STANDARD PLATE
# [3] = Test System: AMES SALMONELLA TYPHIMURIUM, Strain/Indicator: TA98(1,8-DNP6), Metabolic Activation: NONE, Method: STANDARD PLATE
# [4] = Test System: AMES SALMONELLA TYPHIMURIUM, Strain/Indicator: TA98(NR), Metabolic Activation: NONE, Method: STANDARD PLATE
compound,measurement,setting,value
C=CCCl,mutagenic call,"End Point: IN VITRO CHROMOSOMAL ABERRATIONS, Test System: CHL CELLS, Metabolic Activation: RAT, LIVER, S-9, SODIUM PHENOBARBITAL AND 5,6-BENZOFLAVONE",active; positive (structural changes); authors report equivocal results for ploidy chang
same,mutagenic call,"Test System: AMES SALMONELLA TYPHIMURIUM, Strain/Indicator: TA100, Metabolic Activation: NONE, Method: DESICCATOR",active; positive
same,mutagenic call,"Test System: AMES SALMONELLA TYPHIMURIUM, Strain/Indicator: TA100, Metabolic Activation: NONE, Method: PREINCUBATION (20-180 MIN)",inactive; negative
same,mutagenic call,"Test System: AMES SALMONELLA TYPHIMURIUM, Strain/Indicator: TA100, Metabolic Activation: RAT, LIVER, S-9, AROCLOR 1254 (4 OR 12 MG/ML PROTEIN), Method: PREINCUBATION (20 OR 60 MIN)",inactive; negative
same,mutagenic call,"Test System: AMES SALMONELLA TYPHIMURIUM, Strain/Indicator: TA100, Metabolic Activation: RAT, LIVER, S-9, AROCLOR 1254 (4 OR 12 MG/ML PROTEIN), Method: PREINCUBATION (120 OR 180 MIN)",active; positive
same,mutagenic call,"Test System: AMES SALMONELLA TYPHIMURIUM, Strain/Indicator: TA100, Metabolic Activation: RAT, LIVER, S-9, AROCLOR 1254, SERUM ALBUMIN (4 MG/ML) (8 MG/ML PROTEIN), Method: PREINCUBATION (120 MIN)",inactive; negative
same,mutagenic call,"Test System: AMES SALMONELLA TYPHIMURIUM, Strain/Indicator: TA100, Metabolic Activation: RAT, LIVER, S-9, AROCLOR 1254, Method: DESICCATOR",active; positive
same,mutagenic call,"Test System: AMES SALMONELLA TYPHIMURIUM, Strain/Indicator: TA102, Metabolic Activation: S-9, Method: STANDARD PLATE",inactive; negative
same,mutagenic call,"Test System: AMES SALMONELLA TYPHIMURIUM, Strain/Indicator: TA1535, Metabolic Activation: NONE, Method: DESICCATOR",active; positive
same,mutagenic call,"Test System: AMES SALMONELLA TYPHIMURIUM, Strain/Indicator: TA1535, Metabolic Activation: NONE, Method: PREINCUBATION",active; positive
same,mutagenic call,"Test System: AMES SALMONELLA TYPHIMURIUM, Strain/Indicator: TA1535, Metabolic Activation: RAT, LIVER, S-9, AROCLOR 1254, Method: DESICCATOR",active; positive
same,mutagenic call,"Test System: AMES SALMONELLA TYPHIMURIUM, Strain/Indicator: TA1535, Metabolic Activation: RAT, LIVER, S-9, AROCLOR 1254, Method: PREINCUBATION",active; positive
same,mutagenic call,"Test System: AMES SALMONELLA TYPHIMURIUM, Strain/Indicator: TA2638, Metabolic Activation: S-9, Method: STANDARD PLATE",inactive; negative
same,mutagenic call,"Test System: Ames Salmonella typhimurium, Strain/Indicator: TA98, Metabolic Activation: Rat, Liver, S9, Sodium phenobarbital and 5,6-benzoflavone (10%), Method: Preincubation",inactive; negative
same,mutagenic call,"Test System: Ames Salmonella typhimurium, Strain/Indicator: TA100, Metabolic Activation: Rat, Liver, S9, Sodium phenobarbital and 5,6-benzoflavone (10%), Method: Preincubation",inactive; negative
same,mutagenic call,"Test System: Ames Salmonella typhimurium, Strain/Indicator: TA1537, Metabolic Activation: None, Method: Preincubation",inactive; negative
same,mutagenic call,"Test System: Ames Salmonella typhimurium, Strain/Indicator: TA1537, Metabolic Activation: Rat, Liver, S9, Sodium phenobarbital and 5,6-benzoflavone (10%), Method: Preincubation",inactive; negative
same,mutagenic call,"Test System: Ames Salmonella typhimurium, Strain/Indicator: YG7108, Metabolic Activation: None, Method: Standard plate",inactive; positive (negative when allyl chloride dissolved in water)
same,mutagenic call,"Test System: Ames Salmonella typhimurium, Strain/Indicator: YG7108, Metabolic Activation: Rat, Liver, S-9, Phenobarbital/beta-naphthoflavone, Method: Standard plate",active; positive
same,mutagenic call,"Test System: Ames Salmonella typhimurium, Strain/Indicator: YG7108pin3ERb5, Metabolic Activation: None, Method: Standard plate",active; positive
same,mutagenic call,"Test System: E. COLI, Strain/Indicator: WP2 (PKM101), Metabolic Activation: S-9, Method: STANDARD PLATE",inactive; negative
same,mutagenic call,"Test System: E. COLI, Strain/Indicator: WP2 UVRA (PKM101), Metabolic Activation: S-9, Method: STANDARD PLATE",inactive; negative
c1ccc(-c2nc(-c3ccccc3)c(-c3ccccc3)[nH]2)cc1,mutagenic call,[1],active; positive
same,mutagenic call,"Test System: AMES SALMONELLA TYPHIMURIUM, Strain/Indicator: TA98, Metabolic Activation: RAT LIVER S-9, 3-METHYLCHOLANTHRENE, SODIUM PHENOBARBITAL, Method: STANDARD PLATE",inactive; negative
same,mutagenic call,[2],active; positive
same,mutagenic call,"Test System: AMES SALMONELLA TYPHIMURIUM, Strain/Indicator: TA100, Metabolic Activation: RAT LIVER S-9, 3-METHYLCHOLANTHRENE, SODIUM PHENOBARBITAL, Method: STANDARD PLATE",inactive; negative
O=C/C=C/c1ccc([N+](=O)[O-])o1,mutagenic call,[3],active; positive
same,mutagenic call,"Test System: AMES SALMONELLA TYPHIMURIUM, Strain/Indicator: TA98(1,8-DNP6), Metabolic Activation: RAT, LIVER, S-9, 3-METHYLCHOLANTHRENE, Method: STANDARD PLATE",active; positive
same,mutagenic call,[4],active; positive
same,mutagenic call,"Test System: AMES SALMONELLA TYPHIMURIUM, Strain/Indicator: TA98(NR), Metabolic Activation: RAT, LIVER, S-9, 3-METHYLCHOLANTHRENE, Method: STANDARD PLATE",active; positive
same,mutagenic call,[1],active; positive
same,mutagenic call,"Test System: AMES SALMONELLA TYPHIMURIUM, Strain/Indicator: TA98, Metabolic Activation: RAT, LIVER, S-9, 3-METHYLCHOLANTHRENE, Method: STANDARD PLATE",active; positive
same,mutagenic call,"Test System: AMES SALMONELLA TYPHIMURIUM, Strain/Indicator: TA100(1,8-DNP6), Metabolic Activation: NONE, Method: PREINCUBATION",active; positive
same,mutagenic call,"Test System: AMES SALMONELLA TYPHIMURIUM, Strain/Indicator: TA100(1,8-DNP6), Metabolic Activation: RAT, LIVER, S-9, AROCLOR 1254, Method: PREINCUBATION",active; positive
same,mutagenic call,"Test System: AMES SALMONELLA TYPHIMURIUM, Strain/Indicator: TA100(NR), Metabolic Activation: NONE, Method: PREINCUBATION",active; positive
same,mutagenic call,"Test System: AMES SALMONELLA TYPHIMURIUM, Strain/Indicator: TA100(NR), Metabolic Activation: RAT, LIVER, S-9, AROCLOR 1254, Method: PREINCUBATION",active; positive
same,mutagenic call,"Test System: AMES SALMONELLA TYPHIMURIUM, Strain/Indicator: TA100, Metabolic Activation: NONE, Method: PREINCUBATION",active; positive
same,mutagenic call,"Test System: AMES SALMONELLA TYPHIMURIUM, Strain/Indicator: TA100, Metabolic Activation: RAT, LIVER, S-9, AROCLOR 1254, Method: PREINCUBATION",active; positive
O=[N+]([O-])c1ccc2ccc3c4c(cc5ccc1c2c53)C=CCC4,mutagenic call,[3],active; positive
same,mutagenic call,"Test System: AMES SALMONELLA TYPHIMURIUM, Strain/Indicator: TA98(1,8-DNP6), Metabolic Activation: RAT, LIVER, S-9, AROCLOR 1254, Method: STANDARD PLATE",active; positive
same,mutagenic call,[4],active; positive
same,mutagenic call,"Test System: AMES SALMONELLA TYPHIMURIUM, Strain/Indicator: TA98(NR), Metabolic Activation: RAT, LIVER, S-9, AROCLOR 1254, Method: STANDARD PLATE",active; positive
same,mutagenic call,[1],active; positive
same,mutagenic call,"Test System: AMES SALMONELLA TYPHIMURIUM, Strain/Indicator: TA98, Metabolic Activation: RAT, LIVER, S-9, AROCLOR 1254, Method: STANDARD PLATE",active; positive
same,mutagenic call,[2],active; positive
same,mutagenic call,"Test System: AMES SALMONELLA TYPHIMURIUM, Strain/Indicator: TA100, Metabolic Activation: RAT, LIVER, S-9, AROCLOR 1254, Method: STANDARD PLATE",active; positive
CC(C)c1ccc(/C=C/c2ccc([N+](=O)[O-])cc2)cc1,mutagenic call,[1],inactive; negative
same,mutagenic call,"Test System: AMES SALMONELLA TYPHIMURIUM, Strain/Indicator: TA98, Metabolic Activation: RAT, LIVER, S-9, AROCLOR, Method: STANDARD PLATE",active; positive
same,mutagenic call,[2],inactive; negative
same,mutagenic call,"Test System: AMES SALMONELLA TYPHIMURIUM, Strain/Indicator: TA100, Metabolic Activation: RAT, LIVER, S-9, AROCLOR, Method: STANDARD PLATE",active; positive
